{"source": "patent US9629823B2", "about": "“Composition for promoting collagen production, for promoting elastin production and/or for promoting keratinocyte migration and usage therefor” (PUBLIC UNIVERSITY CORPORATION OSAKA CITY UNIVERSITY, priority 2013, dated 2017)", "key": {"[1]": {"system": "human normal skin-derived keratinocyte HaCaT cells", "test": "Scratch (wound healing) assay of keratinocyte migration", "format": "cell-based", "settings": "24 hours, control = 100", "protocol": "Cells of human normal skin-derived keratinocyte HaCaT cells were inoculated at a density of 5.0×10^5 cells/dish in a plastic dish having a diameter of 35 mm with a mark on the bottom and cultured until they reached confluence in a 5% CO2 incubator at 37° C. The culture medium used was Dulbecco's modified Eagle's medium (DMEM: Nissui Pharmaceutical Co., Ltd.) containing 10% fetal bovine serum (FBS: Nichirei Biosciences, Inc.), penicillin (50 units/ml, Meiji Co., Ltd.) and streptomycin ([…], Meiji Co., Ltd.). The medium was replaced every two days.\nAfter culturing the cells until they reached confluence, cells in the dish were scraped with a chip and a linear wound pattern was formed therewith. Immediately thereafter, the wound pattern was analysed under an inverted microscope (OLYMPUS IX-70: Olympus Corporation) and photographed. […] The wound pattern was then analysed with OLYMPUS IX-70 and photographed. […]\nBased on the obtained photographic images, the width of wound patterns in the samples was measured. […] Based on the measurement results, the repair rate in the region of the wound by sesaminol was calculated. The repair rates for the samples calculated are as follows with the rate for the control being 100."}, "[2]": {"system": "type I collagen in CCD-10595K cells", "test": "Collagen production by immunohistochemistry (anti-type I collagen) in fibroblasts", "format": "cell-based, human", "settings": "sesaminol 15 or 30 μg/ml, 24 hours", "protocol": "Cells of human normal skin-derived fibroblast CCD-10595K strain (purchased from DS Pharma Biomedical Co., Ltd.) were inoculated at a density of 3.0×10^4 cells/ml in a plastic dish having a diameter of 35 mm and cultured in a 5% CO2 incubator at 37° C. The medium used was the same medium as in Example 1. After 1 or 2 days, the medium was replaced with the medium containing the sesaminol solution so as to contain sesaminol at a final concentration of 15 or 30 μg/ml and the cells were incubated for 24 hours in a 5% CO2 incubator at 37° C. As a control, incubation was carried out using the medium without sesaminol solution.\nAfter the incubation, cells were washed three times with PBS. Cells were then fixed in 4% paraformaldehyde and stored overnight at 4° C. The fixed cells were treated with 0.1% Triton®-X100 diluted in PBS for 5 minutes and washed with PBS for 5 minutes. The treated cells were blocked in 3% H2O2 and washed with PBS for 5 minutes. The cells were further blocked in 10% normal goat serum and washed with PBS for 5 minutes. A rabbit anti-type I collagen antibody (LSL) diluted 200-fold in PBS was added to the cells on a slide glass which were then incubated for 1 hour and washed with PBS for 5 minutes. […] The prepared slide was analysed on OLYMPUS IX-70 and images of stained cells were obtained."}, "[3]": {"system": "type I collagen in CCD-10595K cells", "test": "Collagen production by western blot analysis in fibroblasts", "format": "cell-based, human", "settings": "sesaminol 15 or 30 μg/ml, 24 hours", "protocol": "(§1) Cells of human normal skin-derived fibroblast CCD-10595K cells (purchased from DS Pharma Biomedical Co., Ltd.) were inoculated in a plastic dish having a diameter of 35 mm and cultured until they reached confluence in a 5% CO2 incubator at 37° C. Thereafter, the medium was replaced with the medium containing the sesaminol solution so as to contain sesaminol at a final concentration of 15 or 30 μg/ml and the cells were incubated for 24 hours in a 5% CO2 incubator at 37° C. The medium used was the same medium as in Example 1. The medium was replaced every two days until the cells reached confluence. As a control, incubation was carried out using the medium without sesaminol solution.\n(§2) After the incubation, cells were washed twice with PBS and collected into a 1.5-ml tube using a cell scraper. […] An aliquot of the collected supernatant was subjected to protein quantification using Serva Blue G (Serva Electrophoresis GmbH) based on the absorbance at 595 nm in order to calculate the amount of sample applied to electrophoresis.\n(§3) Equal volumes of the supernatant containing cell lysate and a sample buffer were mixed and heated at 90° C. for 5 minutes to prepare a sample for electrophoresis. […] The ratio of the band intensity of type I collagen or elastin relative to the band intensity of β-actin was calculated for the samples."}, "[4]": {"system": "elastin in CCD-10595K cells", "test": "Elastin production by western blot analysis in fibroblasts", "format": "cell-based, human", "settings": "sesaminol 15 or 30 μg/ml, 24 hours", "protocol": "as §1, §2, §3"}, "[5]": {"system": "various cell lines used in Examples", "test": "Toxicity and viability check on the cell lines used in Examples", "format": "cell-based", "settings": "sesaminol solution (3.0 mg/ml in DMSO)", "protocol": "The highly concentrated sesaminol solution was dissolved in dimethyl sulphoxide (DMSO) to prepare a sesaminol solution (3.0 mg/ml) to be used in Examples."}}, "data": [{"smiles": "Oc1cc2c(cc1C1OCC3C(c4ccc5c(c4)OCO5)OCC13)OCO2", "note": "(stereo not shown) [sesaminol]", "values": [{"measurement": "repair rate in the region of the wound (control being 100)", "setting": "[1]; sesaminol 15 μg/ml", "value": "121.7±25.6"}, {"measurement": "repair rate in the region of the wound (control being 100)", "setting": "[1]; sesaminol 30 μg/ml", "value": "139.1±20.6"}, {"measurement": "type I collagen staining intensity vs control (FIG. 2)", "setting": "[2]", "value": "stained more intensely than the control"}, {"measurement": "expression level of collagen (band intensity ratio to β-actin, control = 1; FIG. 3)", "setting": "[3]", "value": "increased"}, {"measurement": "expression level of elastin (band intensity ratio to β-actin, control = 1; FIG. 4)", "setting": "[4]", "value": "increased"}, {"measurement": "effect on cell viability", "setting": "[5]", "value": "did not affect viability"}, {"measurement": "toxicity to cell lines", "setting": "[5]", "value": "not toxic"}]}]}
